Results on six compounds are retold here after patent publication US20220387958A1, “APPARATUS AND METHOD FOR ITERATIVE POLYMER SYNTHESIS” (BACHEM AG, priority 2019, published 2022).

What all share (assay type): physicochemical
Series [1] in a line: Flowability of amino acid derivative powders in confined state (annular shear cell, Evolution Powder Tester, pre-consolidation). The note with it: tests with confinement, densified with pre-consolidation forces. The protocol: (§1) The flowability of 15 samples of amino acid powders was tested. The flowability of each powder in unconfined state was assessed by powder flow analysis in a rotating drum (“revolution analyzer”), by testing mass flow through a funnel, and by determining the angle of repose. The latter two measurements were performed according to chapter 1174 of the U.S. Pharmacopeia. The flowability of the samples at a confided state was analyzed by measurements with an annular shear cell and by using the Evolution Powder Tester device by PS Prozesstechnik GmbH, Basel. In these tests, the samples were initially densified with different pre-consolidation forces.

The nature of series [2]: Concentration in saturated dimethyl formamide solution by analytical RP-UHPLC. The note with it: room temperature. On the procedure: The concentration of the same amino acids in saturated solutions of dimethyl formamide at room temperature was determined by analytical reversed phase ultrahigh pressure liquid chromatography. The values ranged from below 200 mg/ml for Fmoc-Pro-OH over around 400 mg/ml for Fmoc-Ala-OH to above 600 mg/ml for Fmoc-Gly-OH.

Series [3] can be described thus: Flowability of amino acid derivative powders in unconfined state (rotating drum, mass flow through a funnel, angle of repose). The note with it: powder, tests without confinement. On the procedure:
as §1

For the compound `C[C@H](NC(=O)OCC1c2ccccc2-c2ccccc21)C(=O)O` [Fmoc-Ala-OH], the flowability entry in series [1] was “Medium values”; in series [3] it was “poor flowability parameters”. Besides, the “concentration in saturated solution” value in series [2] is reported as “around 400 mg/ml”.
In the case of `O=C(N[C@@H](CSC(c1ccccc1)(c1ccccc1)c1ccccc1)C(=O)O)OCC1c2ccccc2-c2ccccc21` [Fmoc-Cys(Trt)-OH], the flowability result in series [1] and in series [3] was “good flowability” in each case.
As to `O=C(O)CNC(=O)OCC1c2ccccc2-c2ccccc21` [Fmoc-Gly-OH], the flowability entry is reported as “poor flowability” in series [1] and “good” in series [3]. For the same compound, the “concentration in saturated solution” value in series [2] is recorded as “above 600 mg/ml”.
For the compound `CC(C)(C)OC(=O)NCCCC[C@H](NC(=O)OCC1c2ccccc2-c2ccccc21)C(=O)O` [Fmoc-Lys(Boc)-OH], in series [1], the flowability entry is given as “poor flowability”.
Take `CSCC[C@H](NC(=O)OCC1c2ccccc2-c2ccccc21)C(=O)O` [Fmoc-Met-OH]: the flowability entry in series [3] was “good flowability”.
Consider `O=C(O)[C@@H]1CCCN1C(=O)OCC1c2ccccc2-c2ccccc21` [Fmoc-Pro-OH], for which the flowability entry in series [1] was “good flowability”; in series [3], “poor flowability parameters”. In series [2], the “concentration in saturated solution” value is listed as “below 200 mg/ml”.
